{"source": "patent US20060093628A1", "about": "“Protein aggregate magnesium-ammonium phospholinoleate-palmitoleate anhydride immonomodulator, its production process and formulation” (priority 2004, published 2006)", "key": {"[1]": {"system": "parvovirus and distemper virus", "assay": "Treatment of dogs carrying parvovirus and distemper virus", "assay_type": "in vivo", "source_text": "a) Antiviral properties through immune response modulation."}, "plasmacytoma": {"system": "plasmacytoma", "assay": "Subcutaneously inoculated plasmacytoma in Balb/c mice", "assay_type": "in vivo", "settings": "5.0 mg/kg intraperitoneal, 3 doses per week, 7 weeks", "source_text": "(§1) b) Antitumoral properties through immune response modulation."}, "[2]": {"system": "spontaneous mammary carcinoma", "assay": "Transplanted spontaneous mammary carcinoma in WAB/Not mice", "assay_type": "in vivo", "settings": "5.0 mg/kg intraperitoneal, 3 doses per week, 7 weeks", "source_text": "as §1"}, "Walker 256 tumoral cells [3]": {"system": "Walker 256 tumoral cells", "assay": "Walker 256 tumor in female Wistar rats", "assay_type": "in vivo", "settings": "daily subcutaneous doses of 0.5 mg/kg"}, "Ehrlich ascitic tumor": {"system": "Ehrlich ascitic tumor", "assay": "Ehrlich ascitic tumor in Balb/c mice", "assay_type": "in vivo", "settings": "5.0 mg/kg subcutaneous for 7 days", "procedure": "Treatment with doses of 5.0 mg/kg of the compound of the present invention, subcutaneously administered for a period of 7 days to Balb/c mice which had been intraperitoneally inoculated with Ehrlich ascitic tumor inhibited 50% of the tumoral growth and increased by 50% the survival of the animals."}, "Walker 256 tumoral cells [4]": {"system": "Walker 256 tumoral cells", "assay": "Walker 256 tumor in gamma-irradiated immunodepressed Wistar rats", "assay_type": "in vivo", "settings": "rats exposed to 4 Gy gamma radiation, subcutaneous administration", "source_text": "c) Immunomodulatory properties."}, "[5]": {"system": "granulocyte-macrophage precursor cells (CFU-GM)", "assay": "Granulocyte-macrophage precursor cells (CFU-GM) in mice with Ehrlich ascitic tumor", "assay_type": "in vivo, Balb/c mice"}, "[6]": {"system": "granulocyte-macrophage precursor cells in the bone marrow", "assay": "In vitro growth and differentiation of bone marrow granulocyte-macrophage precursor cells", "assay_type": "cell-based", "settings": "bone marrow from normal donor Balb/c mice"}, "Lysteria monocytogenes [7]": {"system": "Lysteria monocytogenes", "assay": "Lethal Lysteria monocytogenes infection in Balb/c mice", "assay_type": "in vivo"}, "Lysteria monocytogenes [8]": {"system": "Lysteria monocytogenes", "assay": "In vitro antibacterial activity", "assay_type": "cell-based"}, "[9]": {"system": "lymphocytes and natural killer (NK) cells", "assay": "Functional ability of immunocompetent cells in mice with Ehrlich ascitic tumor", "assay_type": "in vivo, Balb/c mice", "settings": "5.0 mg/kg for 7 days", "procedure": "(§2) Treatment of Balb/c mice, inoculated with Ehrlich ascitic tumor, with 5.0 mg/kg of the compound of the present invention for a period of 7 days was also able to modulate the functional ability of mature immunocompetent cells, supplying additional evidence about the action mechanisms of the compound. This treatment protocol stimulated the proliferative ability of lymphocytes and the cytotoxicity mediated by natural killer (NK) cells."}, "[10]": {"system": "cytokines (IL-2, IFN, IL-4, IL-10)", "assay": "Cytokines in ConA-stimulated splenic cell cultures from mice with Ehrlich ascitic tumor", "assay_type": "in vivo, Balb/c mice", "settings": "5.0 mg/kg for 7 days", "procedure": "as §2"}, "cytokines (IL-2, IFN)": {"system": "cytokines (IL-2, IFN)", "assay": "Cytokines in spleen cell cultures from mice infected with L. monocytogenes", "assay_type": "in vivo, Balb/c mice", "settings": "pre-treatment with 5.0 mg/kg; culture of spleen cells", "procedure": "Levels of the same cytokines found in Balb/c mice infected with L. monocytogenes and subjected to pre-treatment with 5.0 mg/kg of the compound of the present invention supplied additional information about its biological activity. The increase in production of IL-2 e IFN- by the culture of spleen cells from these animals indicate a modulation of the inflammatory-like response, which is fundamental for eradication of the infection."}, "[11]": {"assay": "Toxicity in mice, single doses", "assay_type": "in vivo", "source_text": "(§3) e) In vivo toxicologic properties."}, "[12]": {"assay": "Toxicity in tufted capuchin monkey, 30 days", "assay_type": "in vivo, tufted capuchin monkey (Cebus apella)", "settings": "doses up to 30 mg/kg", "source_text": "as §3"}, "[13]": {"assay": "Toxicity in Wistar rats, 90 days", "assay_type": "in vivo", "settings": "doses up to 100 mg/kg", "source_text": "as §3"}, "[14]": {"assay": "Immunotoxic properties in tufted capuchin monkey", "set-up": "species or system tufted capuchin monkey (Cebus apella)", "settings": "in vivo", "procedure": "f) Immunotoxic properties. […] The following organs were analyzed: bone marrow, spleen, lymph nodes, tonsils, and renal gland e Peyer's patch.\nThe spleen presented an increase of secondary follicles in the white pulp.\nHowever, these cell alterations, found in the anatomopathological examination of the spleen from animals treated with the compound of the present invention, cannot be considered pathological in character; rather, they are due to immune system modulation caused by the use of the compound of the present invention."}, "[15]": {"system": "53 tumor cell cultures representing 8 distinct tumor types and leukemia", "excerpt": "Cytotoxicity of the compound of the present invention was studied in the range of 10^−4 to 10^−8 M in 53 tumor cell cultures representing 8 distinct tumor types (lung, colon, central nervous system, melanoma, ovary, kidney, prostate and mammary) and leukemia."}, "[16]": {"settings": "rat, in vivo, ip, 750 mg/kg", "description": "The bioavailability of the compound of the present invention was evaluated in Wistar rats by administering a single intraperitoneal dose of 750 mg/kg."}, "[17]": {"settings": "splenic cells stimulated by ConA"}}}
{"substance": "protein aggregate of ammonium and magnesium phospholinoleate-palmitoleate anhydride [compound of the present invention]", "values": [{"measurement": "white blood cell count", "setting": "[1]; blood of treated dogs vs infected controls treated with saline only", "result": "significant increase"}, {"measurement": "recovery rate", "setting": "[1]; dogs carrying parvovirus and distemper virus", "result": "higher recovery rate"}, {"measurement": "increase in survival", "setting": "plasmacytoma", "result": 50, "unit": "%"}, {"measurement": "tumoral growth rate", "setting": "plasmacytoma", "result": "significant decrease"}, {"measurement": "increase in survival", "setting": "[2]", "result": 50, "unit": "%"}, {"measurement": "tumoral growth rate", "setting": "[2]", "result": "significant decrease"}, {"measurement": "animals with tumoral regression", "setting": "Walker 256 tumoral cells [3]", "result": 50, "unit": "%"}, {"measurement": "increase in survival", "setting": "Ehrlich ascitic tumor", "result": 50, "unit": "%"}, {"measurement": "inhibition of tumoral growth", "setting": "Ehrlich ascitic tumor", "result": 50, "unit": "%"}, {"measurement": "response to treatment", "setting": "Walker 256 tumoral cells [4]", "result": "did not respond"}, {"measurement": "CFU-GM count in the spleen and splenomegalia", "setting": "[5]; 5.0 mg/kg for 7 days", "result": "significant reduction"}, {"measurement": "myelopoiesis modulation", "setting": "[5]; 5.0 mg/kg for 7 days before or after inoculation", "result": "particularly efficient"}, {"measurement": "number of granulocyte-macrophage precursor cells in the bone marrow (CFU-GM)", "setting": "[5]; 0.5 to 5.0 mg/kg subcutaneous for 7 days", "result": "dose-dependent increase"}, {"measurement": "in vitro effects on growth and differentiation of granulocyte-macrophage precursor cells", "setting": "[6]", "result": "did not present in vitro effects"}, {"measurement": "mice protected against lethal infection", "setting": "Lysteria monocytogenes [7]; pre-treatment 0.5 mg/kg subcutaneous for 7 days", "result": 30, "unit": "%"}, {"measurement": "mice protected against lethal infection", "setting": "Lysteria monocytogenes [7]; pre-treatment 5.0 mg/kg subcutaneous for 7 days", "result": 40, "unit": "%"}, {"measurement": "myeloprotection", "setting": "Lysteria monocytogenes [7]; pre-treatment subcutaneous for 7 days", "result": "promoted myeloprotection"}, {"measurement": "in vitro antibacterial activity", "setting": "Lysteria monocytogenes [8]", "result": "does not display in vitro antibacterial activity"}, {"measurement": "cytotoxicity mediated by natural killer (NK) cells", "setting": "[9]", "result": "stimulated"}, {"measurement": "proliferative ability of lymphocytes", "setting": "[9]", "result": "stimulated"}, {"measurement": "interleukin-4 (IL-4) levels", "setting": "[10]", "result": "No alteration"}, {"measurement": "production of interleukin-10 (IL-10)", "setting": "[10]; mice with tumors", "result": "significantly reduced"}, {"measurement": "gamma-interferon (IFN-)", "setting": "[10]; [17]", "result": "significant increase"}, {"measurement": "interleukin-2 (IL-2)", "setting": "[10]; [17]", "result": "significant increase"}, {"measurement": "production of IFN-", "setting": "cytokines (IL-2, IFN)", "result": "increase"}, {"measurement": "production of IL-2", "setting": "cytokines (IL-2, IFN)", "result": "increase"}, {"measurement": "toxic effects", "setting": "[11]; single doses up to 2000 mg/kg", "result": "No toxic effects"}, {"measurement": "hematological, biochemical, physiological and anatomopathological parameters", "setting": "[11]; stated jointly for the mouse, monkey and rat studies, treated vs control animals", "result": "No significant variation"}, {"measurement": "toxic effects", "setting": "[12]", "result": "No toxic effects"}, {"measurement": "toxic effects", "setting": "[13]", "result": "No toxic effects"}, {"measurement": "granulocytic series in the bone marrow", "setting": "[14]", "result": "slight activation"}, {"measurement": "hematocrit and hemoglobin", "setting": "[14]", "result": "minor decrease"}, {"measurement": "immunotoxic properties", "setting": "[14]", "result": "No immunotoxic properties"}, {"measurement": "lymphocyte population", "setting": "[14]", "result": "small increase"}, {"measurement": "red pulp of the spleen, anatomopathological examination", "setting": "[14]", "result": "Erytrophagocytosis was visible"}, {"measurement": "secondary follicles in the white pulp of the spleen", "setting": "[14]", "result": "increase"}, {"measurement": "total leucocytes, particularly polymorphonuclear neutrophils", "setting": "[14]", "result": "increase"}, {"measurement": "cytotoxicity for tumor cells", "setting": "[15]", "result": "did not display cytotoxicity"}, {"measurement": "plasma t1/2", "setting": "[16]", "result": "about 2 h"}]}
